Test results taken from PubChem BioAssay (NCI).
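Five concentrations, 48 hours, 96-well plates. GI50 is the concentration that inhibits growth by half. TGI marks complete inhibition of growth.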

How the values were obtained:
Test in all cases: inhibition of tumour cell growth, NCI panel, 48 h
SR leukemia = system: SR leukemia
SK-MEL-28 melanoma = system: SK-MEL-28 melanoma
OVCAR-8 ovarian = system: OVCAR-8 ovarian
TK-10 renal = system: TK-10 renal
U251 CNS = system: U251 CNS
HOP-92 NSCLC = system: HOP-92 NSCLC
SNB-75 CNS = system: SNB-75 CNS
SK-OV-3 ovarian = system: SK-OV-3 ovarian
NCI-H460 lung = system: NCI-H460 lung
CCRF-CEM leukemia = system: CCRF-CEM leukemia
CAKI-1 renal = system: CAKI-1 renal
RPMI-8226 leukemia = system: RPMI-8226 leukemia
HCT-116 colon = system: HCT-116 colon
MDA-MB-231 breast = system: MDA-MB-231 breast
OVCAR-3 ovarian = system: OVCAR-3 ovarian
SW-620 colon = system: SW-620 colon
SF-539 CNS = system: SF-539 CNS
EKVX NSCLC = system: EKVX NSCLC
DU-145 prostate = system: DU-145 prostate
LOX IMVI melanoma = system: LOX IMVI melanoma
SK-MEL-5 melanoma = system: SK-MEL-5 melanoma
PC-3 prostate = system: PC-3 prostate
T-47D breast = system: T-47D breast
MDA-MB-435 = system: MDA-MB-435
OVCAR-4 ovarian = system: OVCAR-4 ovarian
HT29 colon = system: HT29 colon
M14 melanoma = system: M14 melanoma
SNB-19 CNS = system: SNB-19 CNS
HCT-15 colon = system: HCT-15 colon
SN12C renal = system: SN12C renal
NCI-H522 lung = system: NCI-H522 lung
A549 NSCLC = system: A549 NSCLC
COLO 205 colon = system: COLO 205 colon
NCI/ADR-RES ovarian = system: NCI/ADR-RES ovarian
ACHN renal = system: ACHN renal
UACC-62 melanoma = system: UACC-62 melanoma
K-562 leukemia = system: K-562 leukemia
UACC-257 melanoma = system: UACC-257 melanoma
OVCAR-5 ovarian = system: OVCAR-5 ovarian
786-0 renal = system: 786-0 renal
UO-31 renal = system: UO-31 renal
BT-549 breast = system: BT-549 breast
MOLT-4 leukemia = system: MOLT-4 leukemia
MCF7 breast = system: MCF7 breast
MALME-3M melanoma = system: MALME-3M melanoma
SF-268 CNS = system: SF-268 CNS
HS 578T breast = system: HS 578T breast
SF-295 CNS = system: SF-295 CNS
NCI-H226 lung = system: NCI-H226 lung
HOP-62 NSCLC = system: HOP-62 NSCLC
IGROV1 ovarian = system: IGROV1 ovarian
SK-MEL-2 melanoma = system: SK-MEL-2 melanoma
NCI-H23 lung = system: NCI-H23 lung
KM12 colon = system: KM12 colon
HCC-2998 colon = system: HCC-2998 colon
RXF 393 renal = system: RXF 393 renal
A498 renal = system: A498 renal

## CC(=O)c1c(CO[N+](=O)[O-])n([O-])c2ccccc2[n+]1=O
SR leukemia
  TGI: > 100 µM
SK-MEL-28 melanoma
  TGI: > 100 µM
OVCAR-8 ovarian
  TGI: > 100 µM
TK-10 renal
  TGI: > 100 µM
U251 CNS
  TGI: > 100 µM
HOP-92 NSCLC
  TGI: > 100 µM
SNB-75 CNS
  TGI: > 100 µM
SK-OV-3 ovarian
  TGI: > 100 µM
NCI-H460 lung
  TGI: > 100 µM
CCRF-CEM leukemia
  TGI: > 100 µM
CAKI-1 renal
  TGI: > 100 µM
RPMI-8226 leukemia
  TGI: > 100 µM
HCT-116 colon
  TGI: > 100 µM
MDA-MB-231 breast
  TGI: > 100 µM
OVCAR-3 ovarian
  TGI: > 100 µM
SW-620 colon
  TGI: > 100 µM
SF-539 CNS
  TGI: > 100 µM
EKVX NSCLC
  TGI: > 100 µM
DU-145 prostate
  TGI: > 100 µM
LOX IMVI melanoma
  TGI: > 100 µM
SK-MEL-5 melanoma
  TGI: > 100 µM
PC-3 prostate
  TGI: > 100 µM
T-47D breast
  TGI: > 100 µM
MDA-MB-435
  TGI: > 100 µM
OVCAR-4 ovarian
  TGI: > 100 µM
HT29 colon
  TGI: > 100 µM
M14 melanoma
  TGI: > 100 µM
SNB-19 CNS
  TGI: > 100 µM
HCT-15 colon
  TGI: > 100 µM
SN12C renal
  TGI: > 100 µM
NCI-H522 lung
  TGI: > 100 µM
A549 NSCLC
  TGI: > 100 µM
COLO 205 colon
  TGI: > 100 µM
NCI/ADR-RES ovarian
  TGI: > 100 µM
ACHN renal
  TGI: > 100 µM
UACC-62 melanoma
  TGI: > 100 µM
K-562 leukemia
  TGI: > 100 µM
UACC-257 melanoma
  TGI: > 100 µM
OVCAR-5 ovarian
  TGI: > 100 µM
786-0 renal
  TGI: > 100 µM
UO-31 renal
  TGI: > 100 µM
BT-549 breast
  TGI: > 100 µM
MOLT-4 leukemia
  TGI: > 100 µM
MCF7 breast
  TGI: > 100 µM
MALME-3M melanoma
  TGI: > 100 µM
SF-268 CNS
  TGI: > 100 µM
HS 578T breast
  TGI: > 100 µM
SF-295 CNS
  TGI: > 100 µM
NCI-H226 lung
  TGI: > 100 µM
HOP-62 NSCLC
  TGI: > 100 µM
IGROV1 ovarian
  TGI: > 100 µM
SK-MEL-2 melanoma
  TGI: > 100 µM
NCI-H23 lung
  TGI: > 100 µM

## CCOC(=O)C1=C(C)N(Cc2ccc(Cl)cc2Cl)C2(O)C=CC(=O)C3=C(O)c4ccccc4C(=O)C312 (configuration not stated)
KM12 colon
  GI50: 4.02 µM
  TGI: 16.8 µM
SK-MEL-28 melanoma
  GI50: 10.6 µM
  TGI: 40.1 µM
OVCAR-8 ovarian
  GI50: 7.17 µM
  TGI: 91.2 µM
TK-10 renal
  GI50: 3.78 µM
  TGI: 10.8 µM
U251 CNS
  GI50: 3.53 µM
  TGI: 15.8 µM
HOP-92 NSCLC
  GI50: 1.23 µM
  TGI: 5.48 µM
SNB-75 CNS
  GI50: 16.9 µM
  TGI: > 100 µM
SK-OV-3 ovarian
  GI50: 17.4 µM
  TGI: 91.7 µM
NCI-H460 lung
  GI50: 5.55 µM
  TGI: 43.2 µM
CAKI-1 renal
  GI50: 3.31 µM
  TGI: 15 µM
HCC-2998 colon
  GI50: 11.2 µM
  TGI: 28.2 µM
RPMI-8226 leukemia
  GI50: 3.29 µM
  TGI: 13 µM
HCT-116 colon
  GI50: 3.19 µM
  TGI: 11.6 µM
RXF 393 renal
  GI50: 11.1 µM
  TGI: 66.5 µM
MDA-MB-231 breast
  GI50: 3.96 µM
  TGI: 12.8 µM
OVCAR-3 ovarian
  GI50: 2.2 µM
  TGI: 6 µM
SW-620 colon
  GI50: 4.74 µM
  TGI: > 100 µM
EKVX NSCLC
  GI50: 10.6 µM
  TGI: 47.8 µM
DU-145 prostate
  GI50: 7.99 µM
  TGI: 28.8 µM
LOX IMVI melanoma
  GI50: 2.75 µM
  TGI: 16.1 µM
SK-MEL-5 melanoma
  GI50: 7.38 µM
  TGI: 23.3 µM
PC-3 prostate
  GI50: 2.16 µM
  TGI: 10.5 µM
T-47D breast
  GI50: 6.83 µM
  TGI: 39.7 µM
MDA-MB-435
  GI50: 3.87 µM
  TGI: 13.4 µM
OVCAR-4 ovarian
  GI50: 11.5 µM
  TGI: > 100 µM
HT29 colon
  GI50: 5.04 µM
  TGI: > 100 µM
M14 melanoma
  GI50: 3.97 µM
  TGI: 69.3 µM
SNB-19 CNS
  GI50: 9.02 µM
  TGI: 78.7 µM
HCT-15 colon
  GI50: 1.82 µM
  TGI: 13.5 µM
SN12C renal
  GI50: 3.39 µM
  TGI: 15.4 µM
NCI-H522 lung
  GI50: 11.4 µM
  TGI: > 100 µM
A549 NSCLC
  GI50: 9.35 µM
  TGI: > 100 µM
COLO 205 colon
  GI50: 4.41 µM
  TGI: 20.6 µM
NCI/ADR-RES ovarian
  GI50: 0.888 µM
  TGI: 10.3 µM
ACHN renal
  GI50: 3.82 µM
  TGI: 18.2 µM
UACC-62 melanoma
  GI50: 4.72 µM
  TGI: 18.9 µM
K-562 leukemia
  GI50: 4.85 µM
  TGI: > 100 µM
UACC-257 melanoma
  GI50: 10.9 µM
  TGI: 61.2 µM
OVCAR-5 ovarian
  GI50: 9.59 µM
  TGI: 30.1 µM
786-0 renal
  GI50: 3.54 µM
  TGI: 15.2 µM
A498 renal
  GI50: 23.7 µM
  TGI: 59.4 µM
BT-549 breast
  GI50: 21.6 µM
  TGI: > 100 µM
MOLT-4 leukemia
  GI50: 3.87 µM
  TGI: > 100 µM
MCF7 breast
  GI50: 2.65 µM
  TGI: 40.1 µM
SF-268 CNS
  GI50: 6.72 µM
  TGI: 37.5 µM
HS 578T breast
  GI50: 16.1 µM
  TGI: 96.3 µM
SF-295 CNS
  GI50: 3.07 µM
  TGI: 14.9 µM
NCI-H226 lung
  GI50: 3.77 µM
  TGI: 27.8 µM
HOP-62 NSCLC
  GI50: 3.56 µM
  TGI: 15 µM
IGROV1 ovarian
  GI50: 8.62 µM
  TGI: > 100 µM
SK-MEL-2 melanoma
  GI50: 38.4 µM
  TGI: > 100 µM
NCI-H23 lung
  GI50: 3.61 µM
  TGI: 16.1 µM
